According to US20070275988A1, “Transition state structure and inhibitors of thymidine phosphorylases” (priority 2003, published 2007):

Key:
[1] = FUra versus FdUrd; cited from earlier work
angiogenesis = details: cited from earlier work
[2] = substrate: O=c1[nH]c(=O)n([C@H]2C[C@H](O)[C@@H](CO)O2)cc1[N+](=O)[O-]; assay: UV-Vis spectrophotometric thymidine phosphorylase assay with 5NdU as substrate; format: biochemical; details: other: substrate, pH 6.01
Procedure: Binding constants were determined by UV-Vis spectrophotometery using 2′-deoxy-5-nitrouridine (5NdU) as the substrate (Km=50 μM at pH 6.01). The reaction mixture consisted of inhibitor (approximately 1/10×Ki to 10×Ki), 50 mM MES (pH 6.01), 150 mM NaCl, 1 mM EDTA, 5 mM inorganic phosphate, and 250 μM 5NdU in a total of 1 ml. Thymidine phosphorylase was added to approximately 10 nM (1 nM enzyme was used for D723333-P) and the reaction was monitored at λ=347 nm for 30 min. At least five concentrations of inhibitor were used for each compound and experiments were repeated in triplicate. Initial rates were determined by a linear least-squares fit. The Ki for each compound was then determined using the following equation: [formula] where ν is the rate of reaction and V is the maximal rate in the absence of inhibitor.

O=c1[nH]cc(F)c(=O)[nH]1 [FUra, 5-fluorouracil]
fold less potent than FdUrd [1]: 100 to 1000 fold

N=C1CCCN1Cc1[nH]c(=O)[nH]c(=O)c1Cl [TPI]
antiangiogenic activity in vivo (angiogenesis): some antiangiogenic activity in vivo

B1: Thymidine phosphorylase (Homo sapiens) (protein)
chain: APPAPGDFSGEGSQGLPDPSPEPKQLPELIRMKRDGGRLSEADIRGFVAAVVNGSAQGAQIGAMLMAIRLRGMDLEETSVLTQALAQSGQQLEWPEAWRQQLVDKHSTGGVGDKVSLVLAPALAACGCKVPMISGRGLGHTGGTLDKLESIPGFNVIQSPEQMQVLLDQAGCCIVGQSEQLVPADGILYAARDVTATVDSLPLITASILSKKLVEGLSALVVDVKFGGAAVFPNQEQARELAKTLVGVGASLGLRVAAALTAMDKPLGRCVGHALEVEEALLCMDGAGPPDLRDLVTTLGGALLWLSGHAGTQAQGAARVAAALDDGSALGRFERMLAAQGVDPGLARALCSGSPAERRQLLPRAREQEELLAPADGTVELVRALPLALVLHELGAGRSRAGEPLRLGVGAELLVDVGQRLRRGTPWLRVHRDGPALSGPQSRALQEALVLSDRAPFAAPSPFAELVLPPQQ
Km [2]: 50 µM
